Data reported in EPA's ToxValDB 9.5 (doi:10.2903/j.efsa.2018.5251).

Columns and labels:
[1] = tested on: Apis mellifera; details: acute, mortality
[2] = tested on: Colinus virginianus; details: acute; oral; mortality
[3] = tested on: Coturnix japonica; details: reproduction developmental
[4] = tested on: Anas platyrhynchos; details: short-term; oral; feed; mortality
[5] = tested on: Lepomis macrochirus; details: acute; duration: 96 hours
[6] = tested on: Tagia sp.; details: for LC50: acute; for NOEC: chronic/long-term, duration: 8 weeks
[7] = tested on: Rattus norvegicus; details: for LD50: acute, oral, mortality
[8] = tested on: Hypoaspis aculeifer; assay: LR50; higher = less toxic; details: acute
[9] = tested on: Folsomia candida; details: chronic/long-term; duration: 28 days
[10] = reproduction developmental, reproduction

Q: What does the source list for `COC(=O)[N-]S(=O)(=O)c1ccc(N)cc1.[Na+]` [Asulam-sodium]?
A: LD50 ([1]; dermal): > 100 µg/piece; LD50 ([1]; oral, unspecified): > 124 µg/piece; LD50 [2]: > 1830 mg/kg-day; NOAEL [3]: 65 mg/kg-day; LC50 [4]: > 100000 mg/kg; LC50 [5]: > 91.3 µg/mL; LC50 ([6]; duration: 14 days): 1000 mg/kg; NOEC [6]: 181 mg/kg; LD50 [7]: > 4560 mg/kg-day; NOAEL [7, 10]: 46 mg/kg-day; NOEL [7, 10]: 46 mg/kg-day; LR50 [8]: > 4370 mg/kg

Q: `Nc1ccc(S(N)(=O)=O)cc1` [Sulfanilamide] was tested. Which LC50 [6] did it give?
A: The LC50 was > 1000 mg/kg.

Q: And the NOEC [6]?
A: The NOEC was 3.75 mg/kg.

Q: And the NOAEC [9]?
A: Its NOAEC is 50 mg/kg.

Q: What about the LD50 ([7]; F) of the same compound?
A: Its LD50 is > 2000 mg/kg-day.
